What follows are molecules tested against T1, glucosylceramide synthase (Homo sapiens, UniProt Q16739) (assay: Glucosylceramide synthase (GCS) enzyme assay, microsome fraction, C8 glucosylceramide quantified by Rapidfire MS/MS). Settings: test compound 10 μM; 1.7 μM UDP-glucose, 3 μM C8 ceramide; room temperature 60 min; read-out: GCS enzyme inhibitory rate at 10 μM (%) (% of control).
T1 construct: made in house; host or cells: Expi293F cells (transient expression, pcDNA3.3-TOPO vector); microsome fraction used as enzyme source
T1 sequence (Q16739 1-394): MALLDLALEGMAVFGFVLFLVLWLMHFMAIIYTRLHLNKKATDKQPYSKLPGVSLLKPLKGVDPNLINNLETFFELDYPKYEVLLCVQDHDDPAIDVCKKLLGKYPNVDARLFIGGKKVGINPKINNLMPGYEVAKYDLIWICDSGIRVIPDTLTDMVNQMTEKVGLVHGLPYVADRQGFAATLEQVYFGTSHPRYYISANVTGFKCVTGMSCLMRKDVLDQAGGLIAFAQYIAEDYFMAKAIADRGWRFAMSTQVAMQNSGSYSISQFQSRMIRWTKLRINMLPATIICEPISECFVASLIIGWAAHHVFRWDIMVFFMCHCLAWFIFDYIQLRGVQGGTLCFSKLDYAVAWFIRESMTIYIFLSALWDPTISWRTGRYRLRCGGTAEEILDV
Format: biochemical
Procedure, shortened: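 Test compound, 10 μM final, was run against human GCS from transfected Expi293F microsome fractions, using substrate solution of 6 μM C8 ceramide (in DOPC liposomes) plus 3.4 μM UDP-glucose, pH 7.5 Tris buffer, 60 min, room temperature. Product C8 glucosylceramide measured by Rapidfire MS/MS against an internal standard, % inhibition referenced to no-enzyme and DMSO wells.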
`Cn1nc2c(c1-c1ccccc1OCC(F)(F)F)CN(c1ccc(F)cc1)C2` [Example 206, 5-(4-fluorophenyl)-2-methyl-3-[2-(2,2,2-trifluoroethoxy)phenyl]-2,4,5,6-tetrahydropyrrolo[3,4-c]pyrazole] was tested, and the inhibition at 10 µM was 66%. For `CS(=O)(=O)c1ccc(N2Cc3cnn(-c4ccccc4OCC(F)(F)F)c3C2)cc1` [Example 207, 5-[4-(methanesulfonyl)phenyl]-1-[2-(2,2,2-trifluoroethoxy)phenyl]-1,4,5,6-tetrahydropyrrolo[3,4-c]pyrazole], the inhibition at 10 µM was 99%. With `O=C1c2ccnc(-c3ccc(F)cc3OCC(F)(F)F)c2CN1c1ccc(C2(O)CCOCC2)cc1` [Example 208, 4-[4-fluoro-2-(2,2,2-trifluoroethoxy)phenyl]-2-[4-(4-hydroxyoxatan-4-yl)phenyl]-2,3-dihydro-1H-pyrrolo[3,4-c]pyridin-1-one] the inhibition at 10 µM was 99%. `O=C1C2=C(CN1c1ccc(OCC(F)(F)F)cc1)C(c1ccc(F)cc1OCC(F)(F)F)=NCCO2` [Example 209, 5-[4-fluoro-2-(2,2,2-trifluoroethoxy)phenyl]-7-[4-(2,2,2-trifluoroethoxy)phenyl]-2,3,6,7-tetrahydro-8H-pyrrolo[3,4-f][1,4]oxazepin-8-one] gave an inhibition at 10 µM of 98%. `O=C1c2ccnc(-c3ccncc3OCC(F)(F)F)c2CN1c1ccc(C2(O)CCC2)cc1` [Example 210, 2-[4-(1-hydroxycyclobutyl)phenyl]-4-[3-(2,2,2-trifluoroethoxy)pyridin-4-yl]-2,3-dihydro-1H-pyrrolo[3,4-c]pyridin-1-one] gave an inhibition at 10 µM of 99%. Molecule `O=C1CCCN1Cc1ccc(N2Cc3c(ccnc3-c3ccc(F)cc3OCC(F)(F)F)C2=O)cc1` [Example 211, 4-[4-fluoro-2-(2,2,2-trifluoroethoxy)phenyl]-2-{4-[(2-oxopyrrolidin-1-yl)methyl]phenyl}-2,3-dihydro-1H-pyrrolo[3,4-c]pyridin-1-one] has an inhibition at 10 µM of 81%. In the case of `CC(C)(O)c1ccc(N2Cc3c(ccnc3-c3ccc(F)cc3OCC(F)(F)F)C2=O)cc1F` [Example 212, 2-[3-fluoro-4-(2-hydroxypropan-2-yl)phenyl]-4-[4-fluoro-2-(2,2,2-trifluoroethoxy)phenyl]-2,3-dihydro-1H-pyrrolo[3,4-c]pyridin-1-one], the inhibition at 10 µM is reported as 99%. For `O=C1c2ccnc(-c3ccc(F)cc3OCC(F)(F)F)c2CN1c1cnn(CC2(F)CC2)c1` [Example 213, 2-{1-[(1-fluorocyclopropyl)methyl]-1H-pyrazol-4-yl}-4-[4-fluoro-2-(2,2,2-trifluoroethoxy)phenyl]-2,3-dihydro-1H-pyrrolo[3,4-c]pyridin-1-one], the inhibition at 10 µM was 94%. Molecule `O=C1c2ccnc(-c3ccccc3OCC(F)(F)F)c2CN1c1ccc(C2(F)COC2)cc1` [Example 214, 2-[4-(3-fluorooxetan-3-yl)phenyl]-4-[2-(2,2,2-trifluoroethoxy)phenyl]-2,3-dihydro-1H-pyrrolo[3,4-c]pyridin-1-one] has an inhibition at 10 µM of 100%. In the case of `CS(=O)(=O)c1ccc(N2Cc3cnn(-c4ccccc4OCC(F)(F)F)c3C2)nc1` [Example 215, 5-[5-(methanesulfonyl)pyridin-2-yl]-1-[2-(2,2,2-trifluoroethoxy)phenyl]-1,4,5,6-tetrahydropyrrolo[3,4-c]pyrazole], the inhibition at 10 µM is reported as 93%. `N#Cc1ccc(N2Cc3cnn(-c4ccccc4OCC(F)(F)F)c3C2)nc1` [Example 216, 6-{1-[2-(2,2,2-trifluoroethoxy)phenyl]-4,6-dihydropyrrolo[3,4-c]pyrazol-5(1H)-yl}pyridine-3-carbonitrile] gave an inhibition at 10 µM of 98%. `CN(C)C(=O)c1ccc(N2Cc3cnn(-c4ccccc4OCC(F)(F)F)c3C2)cc1` [Example 217, N,N-dimethyl-4-{1-[2-(2,2,2-trifluoroethoxy)phenyl]-4,6-dihydropyrrolo[3,4-c]pyrazol-5(1H)-yl}benzamide] showed an inhibition at 10 µM of 98%. `N#CC1(c2ccc(N3Cc4c(ccnc4-c4ccc(F)cc4OCC(F)(F)F)C3=O)cc2)CCOCC1` [Example 218, 4-(4-{4-[4-fluoro-2-(2,2,2-trifluoroethoxy)phenyl]-1-oxo-1,3-dihydro-2H-pyrrolo[3,4-c]pyridin-2-yl}phenyl)oxan-4-carbonitrile] was tested, and the inhibition at 10 µM was 99%. In the case of `O=C1c2ccnc(-c3ccc(F)cc3OCC(F)(F)F)c2CN1c1ccc(C2(O)CCOCC2)c(F)c1` [Example 219, 2-[3-fluoro-4-(4-hydroxyoxan-4-yl)phenyl]-4-[4-fluoro-2-(2,2,2-trifluoroethoxy)phenyl]-2,3-dihydro-1H-pyrrolo[3,4-c]pyridin-1-one], the inhibition at 10 µM is reported as 98%. `O=C1c2ccnc(-c3ccc(F)cc3OCC(F)(F)F)c2CN1c1ccc(C2(O)COC2)c(F)c1` [Example 220, 2-[3-fluoro-4-(3-hydroxyoxetan-3-yl)phenyl]-4-[4-fluoro-2-(2,2,2-trifluoroethoxy)phenyl]-2,3-dihydro-1H-pyrrolo[3,4-c]pyridin-1-one] was tested, and the inhibition at 10 µM was 89%. Work on `CC(C)(C)[Si](C)(C)OC1(c2ccc(N3Cc4c(ccnc4-c4ccccc4OCC(F)(F)F)C3=O)cc2)CC1` [Example 221, 2-[4-(1-{[tert-butyl(dimethyl)silyl]oxy}cyclopropyl)phenyl]-4-[2-(2,2,2-trifluoroethoxy)phenyl]-2,3-dihydro-1H-pyrrolo[3,4-c]pyridin-1-one] yielded an inhibition at 10 µM of 99%. `O=C1c2ccnc(-c3ccccc3OCC(F)(F)F)c2CN1c1ccc(C2(O)CC2)cc1` [Example 222, 2-[4-(1-hydroxycyclopropyl)phenyl]-4-[2-(2,2,2-trifluoroethoxy)phenyl]-2,3-dihydro-1H-pyrrolo[3,4-c]pyridin-1-one] was tested, and the inhibition at 10 µM was 100%. `CC(C)(C)[Si](C)(C)OC1(c2ccc(N3Cc4c(ccnc4-c4ccc(F)cc4OCC(F)(F)F)C3=O)cc2)CC1` [Example 224, 2-[4-(1-{[tert-butyl(dimethyl)silyl]oxy}-cyclopropyl)phenyl]-4-[4-fluoro-2-(2,2,2-trifluoroethoxy)phenyl]-2,3-dihydro-1H-pyrrolo[3,4-c]pyridin-1-one] showed an inhibition at 10 µM of 99%. `O=C1c2ccnc(-c3ccc(F)cc3OCC(F)(F)F)c2CN1c1ccc(C2(O)CC2)cc1` [Example 225, 4-[4-fluoro-2-(2,2,2-trifluoroethoxy)phenyl]-2-[4-(l-hydroxycyclopropyl)phenyl]-2,3-dihydro-1H-pyrrolo[3,4-c]pyridin-1-one] was tested, and the inhibition at 10 µM was 94%. `O=C1c2ccnc(-c3ccc(F)cc3OCC(F)(F)F)c2CN1c1ccc(C2(F)COC2)cc1` [Example 226, 2-[4-(3-fluorooxetan-3-yl)phenyl]-4-[4-fluoro-2-(2,2,2-trifluoroethoxy)phenyl]-2,3-dihydro-1H-pyrrolo[3,4-c]pyridin-1-one] was tested, and the inhibition at 10 µM was 96%. With `O=C1c2ccnc(-c3ccccc3OCC(F)(F)F)c2CN1c1ccc(C2(O)CC(OCc3ccccc3)C2)cc1` (stereo not drawn) [Example 227, (cis or trans)-2-{4-[3-(benzyloxy)-1-hydroxycyclobutyl]phenyl}-4-[2-(2,2,2-trifluoroethoxy)phenyl]-2,3-dihydro-1H-pyrrolo[3,4-c]pyridin-1-one] the inhibition at 10 µM was 100%. `O=C1c2ccnc(-c3ccccc3OCC(F)(F)F)c2CN1c1ccc(C2(O)CC(O)C2)cc1` (stereo not drawn) [Example 228, (cis or trans)-2-[4-(1,3-dihydroxycyclobutyl)phenyl]-4-[2-(2,2,2-trifluoroethoxy)phenyl]-2,3-dihydro-1H-pyrrolo[3,4-c]pyridin-1-one] was tested, and the inhibition at 10 µM was 86%. With `CC(C)(O)Cc1ccc(N2Cc3c(ccnc3-c3ccccc3OCC(F)(F)F)C2=O)cc1` [Example 229, 2-[4-(2-hydroxy-2-methylpropyl)phenyl]-4-[2-(2,2,2-trifluoroethoxy)phenyl]-2,3-dihydro-1H-pyrrolo[3,4-c]pyridin-1-one] the inhibition at 10 µM was 99%. In the case of `CN(C)C(=O)c1ccc(N2Cc3cnn(-c4ccccc4OCC(F)(F)F)c3C2)nc1` [Example 230, N,N-dimethyl-6-{1-[2-(2,2,2-trifluoroethoxy)phenyl]-4,6-dihydropyrrolo[3,4-c]pyrazol-5(1H)-yl}pyridine-3-carboxamide], the inhibition at 10 µM is reported as 73%. `CN(C)C(=O)c1ccc(N2Cc3cnn(-c4ccc(F)cc4OCC(F)(F)F)c3C2)nc1` [Example 231, 6-{1-[4-fluoro-2-(2,2,2-trifluoroethoxy)phenyl]-4,6-dihydropyrrolo[3,4-c]pyrazol-5(1H)-yl}-N,N-dimethylpyridine-3-carboxamide] showed an inhibition at 10 µM of 61%. For `CC(C)(O)COc1ccc(N2Cc3c(ccnc3-c3ccccc3OCC(F)(F)F)C2=O)cn1` [Example 233, 2-[6-(2-hydroxy-2-methylpropoxy)pyridin-3-yl]-4-[2-(2,2,2-trifluoroethoxy)phenyl]-2,3-dihydro-1H-pyrrolo[3,4-c]pyridin-1-one], the inhibition at 10 µM was 96%. Molecule `CC(C)(O)c1ccc(N2Cc3c(ccnc3-c3ccc(F)cc3OCC(F)(F)F)C2=O)nc1` [Example 234, 4-[4-fluoro-2-(2,2,2-trifluoroethoxy)phenyl]-2-[5-(2-hydroxypropan-2-yl)pyridin-2-yl]-2,3-dihydro-1H-pyrrolo[3,4-c]pyridin-1-one] has an inhibition at 10 µM of 99%. With `Cn1cc2c(c(-c3ccccc3OCC(F)(F)F)c1=O)CN(c1ccc(OC(F)F)cc1)C2=O` [Example 236, 2-[4-(difluoromethoxy)phenyl]-5-methyl-7-[2-(2,2,2-trifluoroethoxy)phenyl]-1H-pyrrolo[3,4-c]pyridine-3,6(2H,5H)-dione] the inhibition at 10 µM was 100%.

— patent US12528802B2, “Heterocyclic compound” (Takeda Pharmaceutical Company Limited, priority 2019, dated 2026)
